From patent publication US20120225862A1, “HETEROARYL BENZAMIDES, COMPOSITIONS AND METHODS OF USE” (AUCKLAND UNIVSERVICES LIMITED, priority 2009, published 2012)

Key:
MAPKAP-K2 = target: T1, MAPKAP-K2 (Homo sapiens, UniProt P49137); experiment: In vitro kinase activity (Millipore KinaseProfiler): MAPKAP-K2; format: biochemical; conditions: no head or unit printed
T1 construct: purchased Millipore (KinaseProfiler service)
Procedure: (§1) All cells were grown in DMEM+10% FCS. ACHN and ACHN shVHL were a kind gift from George V. Thomas (UCLA). HIF overexpressing clones were described previously. Transfection of RNA oligos were performed with DnarmaFECT Reagent 1 (Dharmcon), according to manufacturer's directions. ON-TARGETplus SMART pools against HIF-1β/ARNT were purchased from Dharmacon. Glut1 was detected with anti-GLUT1 antibody from NeoMarkers/LabVision/Fisher. Pyruvate/lactate levels and hexokinase activity were both measured by fluorometric assay (BioVision and Sigma-Aldrich, respectively). ATP levels were measured by bioluminescence assay (ATP Determination Kit from Molecular Probes/Invitrogen). In vitro kinase activities were performed by Millipore KinaseProfiler. Affi-Gel 10 (BioRad) activated affinity media was coupled to analogs to generate immobilized affinity linkers.
(§2) We next wanted to investigate the differential glucose uptake between RCCs with and without VHL treated with compound 47 that subsequently lead to the selective death of VHL-deficient cells. We first examined the message levels of the two main glucose transporters, GLUT1 and GLUT2 by quantitative real-time PCR. GLUT1 is an inducible, high-affinity glucose transporter, while GLUT2 is the glucose transporter responsible for basal glucose uptake. […] Cells deficient in VHL had very low levels of GLUT2 that could barely be detected (FIG. 3J). […]

RCC4 and RCC4/VHL cells = experiment: Apoptosis (DAPI nuclear condensation, Annexin V / propidium iodide FACS); format: cell-based, human
Procedure: (§3) (A) Clonogenic survival of RCC4 and RCC4/VHL treated with […] (5 μM)(*p<0.05). All error bars represent the standard error of the mean. […] RCC4 and RCC4/VHL cells were treated with increasing concentrations of compound 47 (1.25, 2.5 and 5 μM), a negative control (DMSO) and a positive control (4-(pyridin-4-yl)-N-(m-tolyl)thiazol-2-amine). Cells were lysed and probed for LC3, a marker of autophagy, or α-tubulin (loading control). […] RCC4 and RCC4/VHL cells were treated with vehicle, increasing concentrations of compound 47, and camptothecin. Cells were stained with DAPI and nuclear condensation was examined by fluorescence microscopy. (D) RCC4 cells were treated with compound 47 (5 μM) for the indicated time and stained with Annexin V and propidium iodide and subjected to FACS analysis. […] RCC4 and RCC4/VHL cells were subjected to increasing concentrations of compound 47 (1.25, 2.5, and 5 μM), a negative control (DMSO), and a positive control (doxorubicin). Cells were lysed and subjected to Western blot with the indicated antibodies.
(§4) However, RCC cells without VHL undergo a necrotic cell death in response to compound 47 as measured by the ability of the cells to exclude trypan blue, an indicator of cell membrane integrity.

IKKα = target: T2, IKKα (Homo sapiens, UniProt O15111); experiment: In vitro kinase activity (Millipore KinaseProfiler): IKKα; format: biochemical; conditions: no head or unit printed
T2 construct: purchased Millipore (KinaseProfiler service)
Procedure: as §1, §2

Rsk1 = target: T3, Rsk1 (Homo sapiens, UniProt Q15418); experiment: In vitro kinase activity (Millipore KinaseProfiler): Rsk1; format: biochemical; conditions: no head or unit printed
T3 construct: purchased Millipore (KinaseProfiler service)
Procedure: as §1, §2

MSK1 = target: T4, MSK1 (Homo sapiens, UniProt O75582); experiment: In vitro kinase activity (Millipore KinaseProfiler): MSK1; format: biochemical; conditions: no head or unit printed
T4 construct: purchased Millipore (KinaseProfiler service)
Procedure: as §1, §2

RCC4/VHL = experiment: Lactate production (glycolysis), RCC4/VHL; format: cell-based, human; conditions: 5 μM
Procedure: as §1
As the central mediator of oxygen homeostasis, HIF plays an important role in the cellular adaptation to low oxygen conditions through the regulation of genes involved in metabolism and energy production. Inactivation of VHL results in an increase in the half-life of HIF protein. […] To examine whether this compound alters the rate of glycolysis in VHL-deficient cells, we measured the intracellular production of lactate, which is rapidly converted from pyruvate, the end-product of glycolysis. […]

Tie2 = target: T5, Tie2 (Homo sapiens, UniProt Q02763); experiment: In vitro kinase activity (Millipore KinaseProfiler): Tie2; format: biochemical; conditions: no head or unit printed
T5 construct: purchased Millipore (KinaseProfiler service)
Procedure: as §1, §2

CDK1/cyclinB = target: T6, CDK1/cyclinB (Homo sapiens, UniProt P06493); experiment: In vitro kinase activity (Millipore KinaseProfiler): CDK1/cyclinB; format: biochemical; conditions: no head or unit printed
T6 construct: purchased Millipore (KinaseProfiler service)
Procedure: as §1, §2

FGFR1 = target: T7, FGFR1 (Homo sapiens, UniProt P11362); experiment: In vitro kinase activity (Millipore KinaseProfiler): FGFR1; format: biochemical; conditions: no head or unit printed
T7 construct: purchased Millipore (KinaseProfiler service)
Procedure: as §1, §2

LC3 = experiment: Autophagy markers (vacuoles, LC3 processing); format: cell-based, human; conditions: RCC4 and RCC4/VHL, 1.25, 2.5 and 5 μM
Procedure: as §3, §4

JAK2 = target: T8, JAK2 (Homo sapiens, UniProt O60674); experiment: In vitro kinase activity (Millipore KinaseProfiler): JAK2; format: biochemical; conditions: no head or unit printed
T8 construct: purchased Millipore (KinaseProfiler service)
Procedure: as §1, §2

PI3K = experiment: In vitro kinase activity (Millipore KinaseProfiler): PI3K; format: biochemical; conditions: no head or unit printed
Procedure: as §1, §2

ROCK-I = target: T9, ROCK-I (Homo sapiens, UniProt Q13464); experiment: In vitro kinase activity (Millipore KinaseProfiler): ROCK-I; format: biochemical; conditions: no head or unit printed
T9 construct: purchased Millipore (KinaseProfiler service)
Procedure: as §1, §2

T2 sequence (O15111 whole entry, species assumed): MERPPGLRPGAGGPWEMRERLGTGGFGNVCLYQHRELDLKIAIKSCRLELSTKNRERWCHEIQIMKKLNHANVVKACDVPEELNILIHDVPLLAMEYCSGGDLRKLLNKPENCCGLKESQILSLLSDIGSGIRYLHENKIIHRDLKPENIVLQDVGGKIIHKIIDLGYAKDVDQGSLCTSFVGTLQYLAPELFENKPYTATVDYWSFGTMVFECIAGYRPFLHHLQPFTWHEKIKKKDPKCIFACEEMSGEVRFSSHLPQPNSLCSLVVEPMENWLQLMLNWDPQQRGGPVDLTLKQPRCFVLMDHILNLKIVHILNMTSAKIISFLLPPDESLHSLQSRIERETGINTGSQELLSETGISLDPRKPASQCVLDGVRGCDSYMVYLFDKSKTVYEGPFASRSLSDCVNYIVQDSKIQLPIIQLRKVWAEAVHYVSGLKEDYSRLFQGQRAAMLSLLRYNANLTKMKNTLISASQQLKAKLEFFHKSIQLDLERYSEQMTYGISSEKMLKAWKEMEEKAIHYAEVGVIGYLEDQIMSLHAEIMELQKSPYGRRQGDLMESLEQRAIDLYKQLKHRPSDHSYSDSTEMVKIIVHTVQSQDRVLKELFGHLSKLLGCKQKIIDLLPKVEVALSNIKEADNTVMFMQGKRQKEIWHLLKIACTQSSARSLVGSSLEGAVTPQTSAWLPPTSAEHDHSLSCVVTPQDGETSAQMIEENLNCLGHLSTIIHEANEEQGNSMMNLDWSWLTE
T7 sequence (P11362 22-822, species assumed): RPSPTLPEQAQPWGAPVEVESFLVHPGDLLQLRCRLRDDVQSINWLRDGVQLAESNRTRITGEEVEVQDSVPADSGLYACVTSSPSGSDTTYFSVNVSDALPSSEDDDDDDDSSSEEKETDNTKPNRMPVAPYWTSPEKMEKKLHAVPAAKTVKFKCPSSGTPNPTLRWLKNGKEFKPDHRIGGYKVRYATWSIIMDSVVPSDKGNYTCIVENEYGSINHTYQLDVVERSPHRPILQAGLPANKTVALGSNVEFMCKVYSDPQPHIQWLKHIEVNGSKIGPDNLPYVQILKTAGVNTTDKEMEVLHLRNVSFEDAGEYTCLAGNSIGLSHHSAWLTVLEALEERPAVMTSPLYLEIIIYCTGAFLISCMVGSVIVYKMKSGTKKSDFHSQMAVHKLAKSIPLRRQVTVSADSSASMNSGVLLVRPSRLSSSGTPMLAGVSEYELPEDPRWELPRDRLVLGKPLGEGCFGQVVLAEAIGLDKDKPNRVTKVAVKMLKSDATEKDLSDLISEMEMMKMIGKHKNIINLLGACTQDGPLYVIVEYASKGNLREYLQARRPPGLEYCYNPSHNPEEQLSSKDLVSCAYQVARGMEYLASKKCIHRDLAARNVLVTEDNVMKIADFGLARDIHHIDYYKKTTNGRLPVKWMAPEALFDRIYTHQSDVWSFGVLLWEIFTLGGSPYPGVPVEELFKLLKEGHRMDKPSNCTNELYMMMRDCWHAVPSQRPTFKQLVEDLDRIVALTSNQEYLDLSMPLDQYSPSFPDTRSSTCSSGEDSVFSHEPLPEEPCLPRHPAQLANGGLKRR
T4 sequence (O75582 whole entry, species assumed): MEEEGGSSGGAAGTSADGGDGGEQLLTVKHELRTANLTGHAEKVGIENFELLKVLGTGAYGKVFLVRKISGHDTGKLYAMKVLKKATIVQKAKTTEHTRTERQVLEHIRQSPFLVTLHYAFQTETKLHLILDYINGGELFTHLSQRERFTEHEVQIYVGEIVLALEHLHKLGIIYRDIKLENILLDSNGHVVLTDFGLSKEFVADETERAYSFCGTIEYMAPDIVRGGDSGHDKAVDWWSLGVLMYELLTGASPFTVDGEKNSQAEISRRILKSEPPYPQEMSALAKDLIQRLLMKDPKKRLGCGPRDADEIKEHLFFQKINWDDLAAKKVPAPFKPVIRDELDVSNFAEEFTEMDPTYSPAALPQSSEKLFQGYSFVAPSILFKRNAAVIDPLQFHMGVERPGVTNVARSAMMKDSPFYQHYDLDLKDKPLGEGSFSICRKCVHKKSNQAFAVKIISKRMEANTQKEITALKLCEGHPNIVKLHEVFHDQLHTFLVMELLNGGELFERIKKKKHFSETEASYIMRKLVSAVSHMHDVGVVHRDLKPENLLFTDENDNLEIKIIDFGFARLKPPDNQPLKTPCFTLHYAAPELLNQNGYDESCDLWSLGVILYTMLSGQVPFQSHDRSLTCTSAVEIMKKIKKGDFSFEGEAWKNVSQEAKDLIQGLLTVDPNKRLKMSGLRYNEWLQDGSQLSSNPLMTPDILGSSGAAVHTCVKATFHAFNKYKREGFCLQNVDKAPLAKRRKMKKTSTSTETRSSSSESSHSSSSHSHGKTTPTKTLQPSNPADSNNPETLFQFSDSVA
T9 sequence (Q13464 whole entry, species assumed): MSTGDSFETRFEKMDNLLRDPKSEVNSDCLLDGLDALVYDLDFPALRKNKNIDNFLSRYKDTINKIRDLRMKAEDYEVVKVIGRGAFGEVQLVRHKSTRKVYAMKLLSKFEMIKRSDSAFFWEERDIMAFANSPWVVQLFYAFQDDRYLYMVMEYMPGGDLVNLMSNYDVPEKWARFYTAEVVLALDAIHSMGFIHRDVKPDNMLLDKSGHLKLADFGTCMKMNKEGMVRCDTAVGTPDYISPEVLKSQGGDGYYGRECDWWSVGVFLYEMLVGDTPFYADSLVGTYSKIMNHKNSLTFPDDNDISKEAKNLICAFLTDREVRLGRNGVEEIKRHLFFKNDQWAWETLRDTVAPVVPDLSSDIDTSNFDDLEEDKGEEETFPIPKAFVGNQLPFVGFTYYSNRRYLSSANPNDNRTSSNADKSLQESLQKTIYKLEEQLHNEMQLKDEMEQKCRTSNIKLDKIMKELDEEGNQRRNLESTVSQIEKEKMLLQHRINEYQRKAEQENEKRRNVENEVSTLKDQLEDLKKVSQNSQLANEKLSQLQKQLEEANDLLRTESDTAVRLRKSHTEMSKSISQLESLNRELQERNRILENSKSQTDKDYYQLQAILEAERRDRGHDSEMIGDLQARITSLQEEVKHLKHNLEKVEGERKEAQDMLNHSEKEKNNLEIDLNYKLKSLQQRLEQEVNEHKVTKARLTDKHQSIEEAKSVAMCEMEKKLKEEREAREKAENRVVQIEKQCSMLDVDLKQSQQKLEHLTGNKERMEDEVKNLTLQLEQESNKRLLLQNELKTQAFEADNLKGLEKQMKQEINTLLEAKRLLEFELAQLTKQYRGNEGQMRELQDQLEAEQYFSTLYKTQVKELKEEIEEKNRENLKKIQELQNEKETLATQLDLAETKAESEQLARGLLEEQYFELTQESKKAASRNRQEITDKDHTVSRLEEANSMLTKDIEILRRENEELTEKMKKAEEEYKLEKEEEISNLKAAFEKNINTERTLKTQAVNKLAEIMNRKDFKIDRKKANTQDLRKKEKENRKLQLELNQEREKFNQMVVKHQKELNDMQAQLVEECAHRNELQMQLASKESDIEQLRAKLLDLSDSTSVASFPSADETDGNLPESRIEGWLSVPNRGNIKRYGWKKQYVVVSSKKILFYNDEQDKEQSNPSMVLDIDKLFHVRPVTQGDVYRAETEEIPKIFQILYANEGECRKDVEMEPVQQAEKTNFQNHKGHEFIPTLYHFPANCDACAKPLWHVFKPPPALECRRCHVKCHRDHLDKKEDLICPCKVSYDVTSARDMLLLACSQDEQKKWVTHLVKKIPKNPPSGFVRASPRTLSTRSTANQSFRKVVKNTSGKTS
T8 sequence (O60674 whole entry, species assumed): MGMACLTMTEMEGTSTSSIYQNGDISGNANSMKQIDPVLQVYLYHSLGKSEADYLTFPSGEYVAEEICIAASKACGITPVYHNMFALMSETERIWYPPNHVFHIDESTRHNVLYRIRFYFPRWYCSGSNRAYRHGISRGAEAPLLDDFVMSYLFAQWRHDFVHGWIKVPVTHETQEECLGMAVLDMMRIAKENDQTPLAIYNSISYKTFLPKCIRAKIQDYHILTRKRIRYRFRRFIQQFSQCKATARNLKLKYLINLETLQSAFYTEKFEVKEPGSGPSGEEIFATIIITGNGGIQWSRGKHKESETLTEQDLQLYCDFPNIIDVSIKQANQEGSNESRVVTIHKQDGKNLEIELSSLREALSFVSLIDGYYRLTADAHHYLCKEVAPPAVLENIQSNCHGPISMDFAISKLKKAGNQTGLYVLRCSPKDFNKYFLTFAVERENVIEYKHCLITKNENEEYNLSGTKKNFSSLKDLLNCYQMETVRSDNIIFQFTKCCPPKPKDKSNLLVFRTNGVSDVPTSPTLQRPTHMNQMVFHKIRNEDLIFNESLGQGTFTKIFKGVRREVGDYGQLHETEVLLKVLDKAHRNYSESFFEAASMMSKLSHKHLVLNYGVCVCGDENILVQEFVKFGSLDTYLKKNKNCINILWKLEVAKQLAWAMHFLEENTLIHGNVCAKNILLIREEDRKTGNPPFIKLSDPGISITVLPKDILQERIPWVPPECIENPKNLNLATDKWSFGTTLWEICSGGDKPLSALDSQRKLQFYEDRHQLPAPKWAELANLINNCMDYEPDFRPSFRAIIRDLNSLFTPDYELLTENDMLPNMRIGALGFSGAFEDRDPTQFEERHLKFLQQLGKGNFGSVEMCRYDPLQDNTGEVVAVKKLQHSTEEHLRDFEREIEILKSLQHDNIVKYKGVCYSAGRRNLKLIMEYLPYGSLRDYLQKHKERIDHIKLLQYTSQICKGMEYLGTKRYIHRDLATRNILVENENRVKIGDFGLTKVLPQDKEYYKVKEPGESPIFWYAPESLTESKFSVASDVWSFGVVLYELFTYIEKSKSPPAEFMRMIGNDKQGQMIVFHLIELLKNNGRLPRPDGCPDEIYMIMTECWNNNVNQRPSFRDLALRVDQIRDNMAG

CC(C)(C)c1ccc(S(=O)(=O)NCc2ccc(C(=O)Nc3cccnc3)cc2)cc1 [Example 38, 4-((4-tert-Butylphenylsulfonamido)methyl)-N-(pyridin-3-yl)benzamide]
MAPKAP-K2 kinase activity (MAPKAP-K2): 87
nuclear condensation (apoptosis) (RCC4 and RCC4/VHL cells; DAPI, RCC4 and RCC4/VHL, FIG. 7C): no nuclear condensation
propidium iodide or annexin V staining (apoptosis) (RCC4 and RCC4/VHL cells; RCC4, 5 μM, FACS, FIG. 7D): nor an increase in either propidium iodide or annexin V staining
IKKα kinase activity (IKKα): 102
Rsk1 kinase activity (Rsk1): 120%
MSK1 kinase activity (MSK1): 107
effect on glycolysis (lactate) in cells with wild-type VHL (RCC4/VHL): did not affect glycolysis
Tie2 kinase activity (Tie2): 111%
CDK1/cyclinB kinase activity (CDK1/cyclinB): 96
FGFR1 kinase activity (FGFR1): 107%
induction of autophagy (vacuoles, LC3 processing) (LC3): did not induce any morphologic or biochemical features of autophagy
JAK2 kinase activity (JAK2): 113
PI3K kinase activity (PI3K): 97
ROCK-I kinase activity (ROCK-I): 74%
